Consider 2 molecules from paper PMC9747717, “A novel small molecule inhibitor of human Drp1” (Scientific Reports, 2022).

For data set [1], the target named is T1, human Drp1 isoform 3 (Homo sapiens, UniProt O00429).
T1 construct: His tag; made in house; host or cells: E. coli Rosetta (DE3), pET21b vector
Description: Drp1 GTPase activity, colorimetric malachite green assay. The class given is biochemical. Here is the method: The GTPase activity of Drp1, which is required for the latter to mediate mitochondrial fission, was examined using the colorimetric GTPase assay kit (Innova Biosciences, Cambridge, UK) according to the manufacturer’s instructions. Compounds were diluted in DMSO (all with a final concentration of 0.1% DMSO). Recombinant human Drp1 protein isoform-3 (final concentration 0.25 ng/µL) was diluted in assay buffer containing 50 mM Tris HCl (pH 7.5) and 2.5 mM MgCl2, followed by incubation with compounds for 15 min at 37 °C in a 96 well plate. 0.5 mM GTP, diluted in assay buffer, was then added into the mixture followed by incubation at 37 °C for 30 min.
Upon binding to Drp1, GTP is hydrolysed into GDP and free phosphate (Pi)[24]. Therefore, the degree of GTPase inhibition was assessed by measuring the concentration of Pi released into the assay buffer, which is detected by a malachite green-based dye. The intensity of Pi-dye complex was assessed by measuring the light absorbance at 635 nm wavelength using a microplate reader (BenchMark Plus, MS, USA). Absorbance of each experimental group was normalised to the vehicle control (DMSO).

The target of data set [2] is T1, human Drp1 isoform 3. Kind of data set: Surface plasmon resonance (SPR) binding. The settings on record: concentrations as high as 100 µM. Here is the method:
The recombinant human Drp1 protein (His-tagged human Drp1 isoform 3, kindly provided by Professor Michael Ryan, Monash University, Australia) was generated as described previously. Briefly, cDNA for human Drp1 (isoform 3) was cloned into pET21b vector and transformed in Rosetta (DE3) competent cells (Novagen, MA, Merck Millipore). Transformed cells were propagated in Luria–Bertani broth and protein expression was initiated by the addition of 0.5 mM isopropyl β-D-1-thiogalactopyranoside. […]
All SPR experiments were performed on a Biacore T200 instrument (GE Healthcare Life Sciences, Uppsala, Sweden) at 25 °C in the presence of HEPES buffered saline containing 20 mM phosphate (pH 7.5), 137 mM NaCl, 2.7 mM KCl and 0.05% Tween-20 (HBS + P). […] Sensor surface was activated with 1:1 mixture of 0.4 M EDC and 0.1 M NHS for 7 min, followed by incremental injections of the protein to reach ~ 8000 RU (flow rate 10 μL/minute) for a calculated maximum analyte binding capacity (Rmax) of 30–50 RU. […]
Compounds were dissolved in 100% dimethyl sulfoxide (DMSO) and then added to HBS + P at a final DMSO concentration of 2%. […] SPR results were analysed using the Biacore T200 Evaluation Software v.1.
On the technique in general: In SPR one partner is held on a chip, and binding of the other changes the refractive index at the surface.

Data set [3] deals with human Drp1. Also on record: method as in PMID 28350990. As to conditions: read-out: inhibitory constant (Ki), GTPase activity of human Drp1; cited from earlier work.
Data set [4] in a line: Dynamic light scattering (DLS) compound aggregation threshold. The class given is physicochemical. The protocol: Identification of compound aggregation threshold was performed using DLS Zetasizer Nano ZS (Malvern Pananalytical, Worcestershire, UK). 100 µL of samples were measured in low-volume plastic micro cuvettes (BrandTech Scientific, CT, USA) at 25 °C using default size measurement settings. […] Mdivi-1 and DRP1i27 were serially diluted three-fold from 500 µM until the volume distribution of particle size was similar to that of the DMSO control. To specifically determine aggregation threshold, further dilution was carried out between concentrations where aggregation was first observed.

The target of data set [5] is T1, human Drp1 isoform 3. Kind of data set: Microscale thermophoresis (MST) binding. As to conditions: human Drp1 isoform 3, 5% DMSO. The protocol: The recombinant human Drp1 protein (His-tagged human Drp1 isoform 3, kindly provided by Professor Michael Ryan, Monash University, Australia) was generated as described previously. Briefly, cDNA for human Drp1 (isoform 3) was cloned into pET21b vector and transformed in Rosetta (DE3) competent cells (Novagen, MA, Merck Millipore). Transformed cells were propagated in Luria–Bertani broth and protein expression was initiated by the addition of 0.5 mM isopropyl β-D-1-thiogalactopyranoside. Cells were harvested by centrifugation at 3,500 g for 20 min at 4 °C, and the pellet was re-suspended in lysis buffer containing 50 mM Tris HCl (pH 7.3), 500 mM NaCl, 50 mM imidazole, 2.5 mM β-mercaptoethanol, 0.01 mM LEUPEP, 0.1 mM AEBSF and 1 mM benzaminidium chloride. The cells were lysed using a pre-cooled EmulsiFlex-C5 homogenizer (Avestin, Ontario, Canada) on ice and clarified by centrifugation at 17,000 g for 30 min. The clarified cell lysate was loaded onto a 5 mL Nickel Chelating Sepharose Fast Flow column (GE Healthcare, Buckinghamshire, UK) and Drp1 protein was eluted with wash buffer containing 50 mM Tris–HCl (pH 7.6), 150 mM NaCl, 2.5 mM β-mercaptoethanol and 400 mM imidazole. […]
Compound binding was assessed in against the human Drp1 isoform-3 protein using MST Monolith NT.115 instrument (NanoTemper Technologies, Mȕnchen, Germany). […]

Data set [6] deals with human iPSC-derived cardiomyocytes. Description: Doxorubicin-induced cardiomyocyte injury, LDH release. The class given is cell-based. The settings on record: doxorubicin 5 µM alone, 2 days. Here is the method: Cardiomyocytes were derived from human induced pluripotent stem cells (iPSCs, CERA007c6 cell line) as previously described with modifications[26],[27]. Briefly, human iPSCs were seeded onto Matrigel (Corning) coated plates at a density of 1.25 × 10^5 cells/cm^2 in TeSR-E8 medium supplemented with 10 μM Y−27632 (Abcam). After 48 h (cells ~ 90% confluent) (day 0), medium was replaced with RPMI-1640 basal medium (Thermo Fisher Scientific) containing B-27 without insulin supplement (Thermo Fisher Scientific), growth factor reduced Matrigel (1:60 dilution) and 10 μM CHIR99021 (Cayman Chemical). At day 1, medium was replaced with RPMI 1640 basal medium containing B-27 without insulin supplement. […]
Enriched cardiomyocytes were replated onto Matrigel-coated 48-well plates at a cell density of 5 × 10^4 cells/cm^2 for 2 days. […] LDH levels in the conditioned media were assessed using a colorimetric CyQUANT LDH Cytotoxicity Assay Kit (Thermo Fisher Scientific) according to manufacturer’s protocol. […] Following the incubation at room temperature for 30 min in the dark, 50 μL of Stop Solution was added and absorbance was measured at 490 nm and 680 nm on a microplate spectrophotometer (Bio-Rad). All readings were then corrected for the background signal from the culture media and expressed as fold change.
On the technique in general: LDH in the medium is a marker of cell lysis.

T1 sequence (O00429 1-699 isoform O00429-4): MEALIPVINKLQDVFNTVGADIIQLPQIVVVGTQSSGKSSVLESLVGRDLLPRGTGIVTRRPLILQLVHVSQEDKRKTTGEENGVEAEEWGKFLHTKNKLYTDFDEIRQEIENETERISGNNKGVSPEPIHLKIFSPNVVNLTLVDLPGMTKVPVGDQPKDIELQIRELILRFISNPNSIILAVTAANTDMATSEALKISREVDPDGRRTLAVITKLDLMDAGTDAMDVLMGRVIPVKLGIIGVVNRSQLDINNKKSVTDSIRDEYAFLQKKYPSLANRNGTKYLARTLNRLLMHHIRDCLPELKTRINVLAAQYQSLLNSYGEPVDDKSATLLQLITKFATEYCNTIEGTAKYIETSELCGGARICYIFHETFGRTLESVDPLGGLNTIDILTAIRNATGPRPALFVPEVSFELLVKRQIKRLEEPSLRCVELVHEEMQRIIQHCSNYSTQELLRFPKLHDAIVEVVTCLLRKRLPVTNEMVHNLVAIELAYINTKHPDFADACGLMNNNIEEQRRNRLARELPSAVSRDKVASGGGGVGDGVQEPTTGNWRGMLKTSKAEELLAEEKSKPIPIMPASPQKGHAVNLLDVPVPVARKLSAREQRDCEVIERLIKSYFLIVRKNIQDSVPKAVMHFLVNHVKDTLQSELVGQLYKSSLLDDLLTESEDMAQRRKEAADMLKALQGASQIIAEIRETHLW

A word on the Ki: it is a measure of affinity in units of concentration, obtained from inhibition or displacement. One may read the Kd as the free concentration of one partner at which half of the binding sites on the other are occupied at equilibrium, for simple one-to-one binding. A lower Kd goes with tighter binding. As for `COc1cc(-n2c(=S)[nH]c3ccccc3c2=O)c(Cl)cc1Cl` [Mdivi-1], the “inhibition of GTPase activity of human Drp1” value is “significant inhibition” in data set [1] (5 µM) and “not observed” in data set [1] (increasing concentration above 5 µM). Besides, in data set [2], the SPR binding response result is recorded as “no binding response”. Moreover, the Ki in data set [3] is above 1200 µM. The aggregation threshold in data set [4] (2% DMSO with 0.05% Tween-20) is on record as 70 µM; in data set [4] (5% DMSO with 0.05% Tween-20), 18.5 µM; in data set [4] (PBS, 2% DMSO), 20 µM; in data set [4] (PBS, 5% DMSO), 35 µM. Also, the “concentrations at which the compound aggregated” value in data set [4] (assay buffer containing DMSO and Tween-20) was “above 18.5 µM”. Also, the Kd in data set [5] amounted to 0.23 µM.
Consider `COc1cccc2c1C(=O)c1c(O)c3c(c(O)c1C2=O)C[C@@](O)(C(=O)CO)C[C@@H]3O[C@H]1C[C@H](N)[C@H](O)[C@H](C)O1` [doxorubicin, reference compound], for which, in data set [6], the LDH release was 3.41 ± 0.11 fold change.
